Laboratory results from paper PMC8550792, “Evolution of kinase polypharmacology across HSP90 drug discovery” (Cell Chemical Biology, 2021).

Legend:
Test in all cases: biochemical
Assay type in all cases: biochemical
[1] = target: T1, 382 unique human kinases (Homo sapiens, UniProt P07949, R813Q); settings: RET (R813Q), 10 uM; for remaining activity at 10 µM: read-out: % Enzyme Activity (relative to DMSO controls)
T1 construct: purchased Reaction Biology (HotSpot contract assay)

[2] = target: T2, 382 unique human kinases (Homo sapiens, UniProt P08581, Y1230H); settings: c-MET (Y1230H), 10 uM; for remaining activity at 10 µM: read-out: % Enzyme Activity (relative to DMSO controls)
T2 construct: purchased Reaction Biology (HotSpot contract assay)

[3] = target: T3, 382 unique human kinases (Homo sapiens, UniProt P53778); settings: P38g, compound at 10 uM, duplicate values; for remaining activity at 10 µM: read-out: % Enzyme Activity (relative to DMSO controls)
T3 construct: purchased Reaction Biology (HotSpot contract assay)
T3 sequence (P53778 1-367): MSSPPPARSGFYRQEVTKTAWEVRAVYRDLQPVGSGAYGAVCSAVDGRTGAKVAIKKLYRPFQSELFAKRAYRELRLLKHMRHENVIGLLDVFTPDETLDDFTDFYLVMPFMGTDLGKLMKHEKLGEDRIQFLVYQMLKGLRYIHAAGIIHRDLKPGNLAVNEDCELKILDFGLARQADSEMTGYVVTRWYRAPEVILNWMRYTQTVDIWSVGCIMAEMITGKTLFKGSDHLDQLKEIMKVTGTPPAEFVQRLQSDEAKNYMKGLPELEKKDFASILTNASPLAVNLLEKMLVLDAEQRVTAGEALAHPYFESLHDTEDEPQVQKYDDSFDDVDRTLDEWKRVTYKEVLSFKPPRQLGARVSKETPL

[4] = target: T4, 382 unique human kinases (Homo sapiens, UniProt Q13627); settings: DYRK1/DYRK1A, 10 uM; for remaining activity at 10 µM: read-out: % Enzyme Activity (relative to DMSO controls)
T4 construct: purchased Reaction Biology (HotSpot contract assay)

[5] = target: T5, 382 unique human kinases (Homo sapiens, UniProt Q8IVH8); settings: kinase GLK/MAP4K3, compound 10 uM; for remaining activity at 10 µM: read-out: % Enzyme Activity (relative to DMSO controls)
T5 construct: purchased Reaction Biology (HotSpot contract assay)
T5 sequence (Q8IVH8 1-894): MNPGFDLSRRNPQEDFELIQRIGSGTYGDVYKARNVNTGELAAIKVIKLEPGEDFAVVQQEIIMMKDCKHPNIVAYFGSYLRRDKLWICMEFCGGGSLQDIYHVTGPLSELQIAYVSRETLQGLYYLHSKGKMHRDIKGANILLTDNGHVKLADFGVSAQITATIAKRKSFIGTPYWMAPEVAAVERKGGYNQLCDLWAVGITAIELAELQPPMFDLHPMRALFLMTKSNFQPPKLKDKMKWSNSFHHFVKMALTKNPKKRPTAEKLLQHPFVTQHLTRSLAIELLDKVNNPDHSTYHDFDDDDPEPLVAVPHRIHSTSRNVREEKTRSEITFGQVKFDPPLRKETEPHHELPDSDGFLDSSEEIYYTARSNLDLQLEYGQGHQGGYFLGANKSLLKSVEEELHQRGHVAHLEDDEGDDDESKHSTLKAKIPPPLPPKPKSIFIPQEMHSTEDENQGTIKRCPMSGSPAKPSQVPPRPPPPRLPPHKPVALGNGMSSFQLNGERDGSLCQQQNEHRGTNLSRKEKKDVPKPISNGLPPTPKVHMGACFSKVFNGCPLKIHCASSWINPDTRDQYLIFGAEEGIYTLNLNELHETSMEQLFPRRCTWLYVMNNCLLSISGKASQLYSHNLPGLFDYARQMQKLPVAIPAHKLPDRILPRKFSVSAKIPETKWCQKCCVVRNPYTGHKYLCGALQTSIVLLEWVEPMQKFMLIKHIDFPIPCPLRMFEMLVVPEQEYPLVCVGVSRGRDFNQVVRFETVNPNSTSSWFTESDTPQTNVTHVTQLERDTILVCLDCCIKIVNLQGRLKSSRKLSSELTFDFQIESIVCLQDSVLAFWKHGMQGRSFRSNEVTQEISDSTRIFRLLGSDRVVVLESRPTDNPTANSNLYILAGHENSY

[6] = target: T6, 382 unique human kinases (Homo sapiens, UniProt Q8NE63); settings: HIPK4, 10 uM; for remaining activity at 10 µM: read-out: % Enzyme Activity (relative to DMSO controls)
T6 construct: purchased Reaction Biology (HotSpot contract assay)
T6 sequence (Q8NE63 1-616): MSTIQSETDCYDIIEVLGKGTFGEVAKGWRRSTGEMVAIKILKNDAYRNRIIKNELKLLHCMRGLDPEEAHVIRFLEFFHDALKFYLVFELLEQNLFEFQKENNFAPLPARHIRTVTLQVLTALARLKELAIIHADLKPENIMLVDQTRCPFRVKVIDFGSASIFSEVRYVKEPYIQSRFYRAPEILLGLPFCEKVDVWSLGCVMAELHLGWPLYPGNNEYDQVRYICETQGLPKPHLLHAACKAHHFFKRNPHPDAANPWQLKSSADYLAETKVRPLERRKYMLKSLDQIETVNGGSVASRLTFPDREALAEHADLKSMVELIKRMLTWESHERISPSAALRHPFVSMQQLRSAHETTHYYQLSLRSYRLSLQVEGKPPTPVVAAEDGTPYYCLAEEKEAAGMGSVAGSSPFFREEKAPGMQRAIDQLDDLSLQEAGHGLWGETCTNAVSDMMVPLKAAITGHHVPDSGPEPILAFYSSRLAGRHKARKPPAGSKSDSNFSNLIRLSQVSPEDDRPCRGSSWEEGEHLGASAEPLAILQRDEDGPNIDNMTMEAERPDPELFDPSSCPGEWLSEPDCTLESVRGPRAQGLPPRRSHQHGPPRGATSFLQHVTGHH

[7] = target: T7, 382 unique human kinases (Homo sapiens, UniProt Q9UBS0); settings: kinase p70S6Kb/RPS6KB2, compound 10 uM; for remaining activity at 10 µM: read-out: % Enzyme Activity (relative to DMSO controls)
T7 construct: purchased Reaction Biology (HotSpot contract assay)

[8] = target: T8, 382 unique human kinases (Homo sapiens, UniProt Q9UM73); settings: ALK, 10 uM; for remaining activity at 10 µM: read-out: % Enzyme Activity (relative to DMSO controls)
T8 construct: purchased Reaction Biology (HotSpot contract assay)

[9] = target: T9, 382 unique human kinases (Homo sapiens, UniProt P00519, Y253H); settings: ABL1 (Y253H), [ATP] 10 µM, compound 10 uM; for remaining activity at 10 µM: read-out: % Enzyme Activity (relative to DMSO controls)
T9 construct: purchased Reaction Biology (HotSpot contract assay)

[10] = target: T10, 382 unique human kinases (Homo sapiens, UniProt P08581, T992I); settings: c-MET (T992I), 10 uM; for remaining activity at 10 µM: read-out: % Enzyme Activity (relative to DMSO controls)
T10 construct: purchased Reaction Biology (HotSpot contract assay)

[11] = target: T11, 382 unique human kinases (Homo sapiens, UniProt P08581, V1092I); settings: c-MET (V1092I), 10 uM; for remaining activity at 10 µM: read-out: % Enzyme Activity (relative to DMSO controls)
T11 construct: purchased Reaction Biology (HotSpot contract assay)

[12] = target: T12, 382 unique human kinases (Homo sapiens, UniProt Q9UM73, F1174S); settings: ALK (F1174S), [ATP] 20 µM, compound 10 uM; for remaining activity at 10 µM: read-out: % Enzyme Activity (relative to DMSO controls)
T12 construct: purchased Reaction Biology (HotSpot contract assay)

[13] = target: T13, 382 unique human kinases (Homo sapiens, UniProt Q9UM73, G1202R); settings: ALK (G1202R), [ATP] 20 µM, compound 10 uM; for remaining activity at 10 µM: read-out: % Enzyme Activity (relative to DMSO controls)
T13 construct: purchased Reaction Biology (HotSpot contract assay)
T13 sequence (Q9UM73 19-1620 G1202R): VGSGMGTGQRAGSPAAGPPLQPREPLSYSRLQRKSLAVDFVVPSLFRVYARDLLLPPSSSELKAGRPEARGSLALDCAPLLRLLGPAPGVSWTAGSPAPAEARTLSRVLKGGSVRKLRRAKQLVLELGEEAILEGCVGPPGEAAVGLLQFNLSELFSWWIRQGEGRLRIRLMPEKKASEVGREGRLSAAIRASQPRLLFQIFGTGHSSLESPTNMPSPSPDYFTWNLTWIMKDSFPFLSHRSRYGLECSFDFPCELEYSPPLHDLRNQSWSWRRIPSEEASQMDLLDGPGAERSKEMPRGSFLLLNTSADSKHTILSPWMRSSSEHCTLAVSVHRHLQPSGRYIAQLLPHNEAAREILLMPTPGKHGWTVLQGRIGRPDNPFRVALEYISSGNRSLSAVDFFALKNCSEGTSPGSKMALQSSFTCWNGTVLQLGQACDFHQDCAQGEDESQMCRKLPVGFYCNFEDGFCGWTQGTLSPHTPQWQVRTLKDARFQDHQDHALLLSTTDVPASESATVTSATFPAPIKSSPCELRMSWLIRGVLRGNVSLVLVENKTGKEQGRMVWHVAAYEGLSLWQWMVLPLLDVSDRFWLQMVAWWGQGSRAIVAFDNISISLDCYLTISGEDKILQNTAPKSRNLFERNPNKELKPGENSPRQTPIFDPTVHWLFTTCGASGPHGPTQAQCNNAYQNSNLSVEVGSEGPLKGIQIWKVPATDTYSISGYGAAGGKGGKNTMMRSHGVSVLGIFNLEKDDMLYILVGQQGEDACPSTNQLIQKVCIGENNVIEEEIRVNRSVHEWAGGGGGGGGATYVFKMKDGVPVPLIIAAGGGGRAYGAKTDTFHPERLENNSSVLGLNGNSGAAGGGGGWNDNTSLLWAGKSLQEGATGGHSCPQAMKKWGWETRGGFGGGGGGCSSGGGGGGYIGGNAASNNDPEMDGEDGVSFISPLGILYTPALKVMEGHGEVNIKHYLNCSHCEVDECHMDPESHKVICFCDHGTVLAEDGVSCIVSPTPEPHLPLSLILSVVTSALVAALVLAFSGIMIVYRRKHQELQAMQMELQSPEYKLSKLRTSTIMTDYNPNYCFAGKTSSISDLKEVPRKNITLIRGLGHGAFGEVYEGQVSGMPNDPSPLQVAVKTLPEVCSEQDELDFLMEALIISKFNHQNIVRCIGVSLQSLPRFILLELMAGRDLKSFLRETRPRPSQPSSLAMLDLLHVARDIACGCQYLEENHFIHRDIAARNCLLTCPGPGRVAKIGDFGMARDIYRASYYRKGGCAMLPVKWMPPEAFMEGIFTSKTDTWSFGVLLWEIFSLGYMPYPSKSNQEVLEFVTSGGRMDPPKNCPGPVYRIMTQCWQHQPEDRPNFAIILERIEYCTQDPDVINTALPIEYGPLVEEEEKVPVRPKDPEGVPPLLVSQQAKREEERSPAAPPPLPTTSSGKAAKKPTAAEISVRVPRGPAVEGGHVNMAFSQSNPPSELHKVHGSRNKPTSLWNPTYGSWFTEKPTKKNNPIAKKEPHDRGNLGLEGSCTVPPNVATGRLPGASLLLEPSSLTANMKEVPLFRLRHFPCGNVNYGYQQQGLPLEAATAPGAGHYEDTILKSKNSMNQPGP

T9 sequence (P00519 whole entry Y253H): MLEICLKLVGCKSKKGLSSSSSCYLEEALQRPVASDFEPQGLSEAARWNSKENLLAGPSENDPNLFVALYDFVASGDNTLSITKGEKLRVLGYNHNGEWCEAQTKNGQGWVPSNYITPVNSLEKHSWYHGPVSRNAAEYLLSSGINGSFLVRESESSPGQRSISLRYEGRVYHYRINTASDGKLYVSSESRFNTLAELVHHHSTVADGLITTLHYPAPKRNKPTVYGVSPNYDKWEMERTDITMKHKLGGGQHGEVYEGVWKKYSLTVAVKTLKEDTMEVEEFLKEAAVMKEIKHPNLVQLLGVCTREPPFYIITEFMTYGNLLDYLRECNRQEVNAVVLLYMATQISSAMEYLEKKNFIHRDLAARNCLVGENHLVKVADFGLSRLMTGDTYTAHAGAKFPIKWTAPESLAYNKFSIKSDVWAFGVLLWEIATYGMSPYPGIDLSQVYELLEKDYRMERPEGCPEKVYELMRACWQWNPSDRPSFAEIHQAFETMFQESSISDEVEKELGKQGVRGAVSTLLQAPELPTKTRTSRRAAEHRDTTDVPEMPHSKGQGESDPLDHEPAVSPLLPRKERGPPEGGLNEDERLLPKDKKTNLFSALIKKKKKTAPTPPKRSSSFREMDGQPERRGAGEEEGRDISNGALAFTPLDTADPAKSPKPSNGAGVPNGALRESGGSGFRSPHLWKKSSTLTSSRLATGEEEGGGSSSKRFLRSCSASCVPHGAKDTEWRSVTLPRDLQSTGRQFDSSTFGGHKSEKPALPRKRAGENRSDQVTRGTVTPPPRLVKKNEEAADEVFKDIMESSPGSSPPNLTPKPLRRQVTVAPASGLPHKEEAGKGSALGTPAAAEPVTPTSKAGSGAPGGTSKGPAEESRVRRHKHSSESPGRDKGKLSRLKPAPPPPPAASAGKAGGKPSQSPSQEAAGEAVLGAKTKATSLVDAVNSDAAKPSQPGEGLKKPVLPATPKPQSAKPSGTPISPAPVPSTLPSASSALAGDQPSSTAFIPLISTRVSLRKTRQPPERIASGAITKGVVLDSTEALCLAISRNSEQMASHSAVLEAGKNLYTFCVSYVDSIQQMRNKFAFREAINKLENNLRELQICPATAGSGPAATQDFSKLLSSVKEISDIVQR
T1 sequence (P07949 29-1114 R813Q): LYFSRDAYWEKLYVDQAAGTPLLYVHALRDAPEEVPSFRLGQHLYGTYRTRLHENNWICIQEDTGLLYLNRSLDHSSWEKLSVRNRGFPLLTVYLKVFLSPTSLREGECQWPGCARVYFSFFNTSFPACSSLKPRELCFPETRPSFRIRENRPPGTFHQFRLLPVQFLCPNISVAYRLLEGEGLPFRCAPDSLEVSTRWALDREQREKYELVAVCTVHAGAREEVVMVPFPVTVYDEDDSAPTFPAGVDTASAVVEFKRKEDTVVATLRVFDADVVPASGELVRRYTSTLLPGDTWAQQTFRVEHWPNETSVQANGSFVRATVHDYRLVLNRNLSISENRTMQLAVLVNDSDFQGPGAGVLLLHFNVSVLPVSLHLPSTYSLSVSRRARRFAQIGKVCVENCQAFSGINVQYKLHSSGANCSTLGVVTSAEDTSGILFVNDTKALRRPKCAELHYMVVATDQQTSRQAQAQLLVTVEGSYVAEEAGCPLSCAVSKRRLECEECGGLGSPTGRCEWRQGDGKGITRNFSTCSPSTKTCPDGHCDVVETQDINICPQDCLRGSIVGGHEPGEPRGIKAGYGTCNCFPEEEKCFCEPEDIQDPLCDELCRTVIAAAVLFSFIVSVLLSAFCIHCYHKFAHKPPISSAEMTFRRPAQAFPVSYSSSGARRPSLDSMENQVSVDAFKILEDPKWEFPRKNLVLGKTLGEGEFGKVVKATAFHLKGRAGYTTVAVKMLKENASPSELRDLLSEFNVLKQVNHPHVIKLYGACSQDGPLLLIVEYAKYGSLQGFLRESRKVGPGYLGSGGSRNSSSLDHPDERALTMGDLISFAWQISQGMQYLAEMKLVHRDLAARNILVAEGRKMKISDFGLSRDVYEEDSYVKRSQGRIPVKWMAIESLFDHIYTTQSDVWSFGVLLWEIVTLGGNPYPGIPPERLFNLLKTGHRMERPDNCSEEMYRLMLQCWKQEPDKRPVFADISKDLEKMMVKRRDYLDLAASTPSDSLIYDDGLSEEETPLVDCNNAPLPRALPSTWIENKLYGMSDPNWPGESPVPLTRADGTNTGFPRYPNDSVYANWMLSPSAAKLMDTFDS
T8 sequence (Q9UM73 19-1620): as the sequence (Q9UM73 19-1620 G1202R) above, with R1184G counted along it
T7 sequence (Q9UBS0 whole entry): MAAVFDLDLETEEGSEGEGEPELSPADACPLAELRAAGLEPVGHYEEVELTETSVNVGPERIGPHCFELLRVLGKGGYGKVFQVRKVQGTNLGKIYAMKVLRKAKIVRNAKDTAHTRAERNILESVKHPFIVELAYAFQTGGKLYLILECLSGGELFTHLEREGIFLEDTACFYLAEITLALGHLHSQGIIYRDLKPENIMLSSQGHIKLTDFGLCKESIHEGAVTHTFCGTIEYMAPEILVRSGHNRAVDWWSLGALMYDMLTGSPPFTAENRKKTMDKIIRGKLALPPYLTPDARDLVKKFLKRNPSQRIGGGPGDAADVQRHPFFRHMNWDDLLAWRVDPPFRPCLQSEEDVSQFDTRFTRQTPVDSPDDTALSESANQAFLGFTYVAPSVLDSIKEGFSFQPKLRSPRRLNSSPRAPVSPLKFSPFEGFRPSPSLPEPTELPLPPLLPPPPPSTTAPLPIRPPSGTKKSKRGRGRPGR
T12 sequence (Q9UM73 19-1620 F1174S): as the sequence (Q9UM73 19-1620 G1202R) above, with F1156S, R1184G counted along it

| Structure (SMILES) | remaining activity at 10 µM [1] | remaining activity at 10 µM [2] | remaining activity at 10 µM [3] | remaining activity at 10 µM [4] | remaining activity at 10 µM [5] | remaining activity at 10 µM [6] | remaining activity at 10 µM [7] | remaining activity at 10 µM [8] | remaining activity at 10 µM [9] | remaining activity at 10 µM [10] | remaining activity at 10 µM [11] | remaining activity at 10 µM [12] | remaining activity at 10 µM [13] | also measured |
| --- | --- | --- | --- | --- | --- | --- | --- | --- | --- | --- | --- | --- | --- | --- |
| CC(C)c1cc(-c2n[nH]c(=O)n2-c2ccc3c(ccn3C)c2)c(O)cc1O [Ganetespib (STA9090)] | 78% | 108% | 119% | 69.6% | 89.8% | 64.4% | 96.6% | 67.5% | – | – | – | – | – | – |
| CC(C)c1cc(-c2n[nH]c(=O)n2-c2ccc3c(ccn3C)c2)c(O)cc1O [Ganetespib] | – | – | – | – | – | – | – | – | 9.65% | 95.6% | 98.3% | 50.7% | 52.8% | – |
| CCNC(=O)c1noc(-c2cc(C(C)C)c(O)cc2O)c1-c1ccc(CN2CCOCC2)cc1 [Luminespib (AUY-922)] | 105% | 79.7% | 106% | 97.2% | 87.1% | 88.8% | 113% | 97.2% | – | – | – | – | – | % Enzyme Activity (relative to DMSO controls) [1]: 103.53%; % Enzyme Activity (relative to DMSO controls) [2]: 78.17%; % Enzyme Activity (relative to DMSO controls) [3]: 104.66%; % Enzyme Activity (relative to DMSO controls) [4]: 94.59%; % Enzyme Activity (relative to DMSO controls) [5]: 86.46%; % Enzyme Activity (relative to DMSO controls) [6]: 88.32%; % Enzyme Activity (relative to DMSO controls) [7]: 108.19%; % Enzyme Activity (relative to DMSO controls) [8]: 95.41% |
| CCNC(=O)c1noc(-c2cc(C(C)C)c(O)cc2O)c1-c1ccc(CN2CCOCC2)cc1 [Luminespib] | – | – | – | – | – | – | – | – | 6.94% | 91.3% | 97.2% | 98.7% | 104% | % Enzyme Activity (relative to DMSO controls) [9]: 6.34%; % Enzyme Activity (relative to DMSO controls) [10]: 90.73%; % Enzyme Activity (relative to DMSO controls) [11]: 95.91%; % Enzyme Activity (relative to DMSO controls) [12]: 97.77%; % Enzyme Activity (relative to DMSO controls) [13]: 100.40% |
